# According to patent publication US20020137929A1, “1 - (3-heterocyclylphenyl) isothiourea, -isourea, -guanidine and -amidine herbicidal agents” (Intellectual Property Department, BASF Aktiengesellschaft, priority 1998, published 2002):
# Tests used:
# [1] = tested on: ECHORC (Watergrass (Calif.)); assay: Preemergence weed control under flooded paddy conditions; format: in vivo, Echinochloa oryzoides; details: rated 3-4 weeks after treatment
# Summary of the method: (§1)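 Seeds or propagules sown in top 0.5 cm of silt loam soil, flooded 1.5 to 3 cm above surface throughout. Compound in 50/50 v/v aqueous/acetone pipetted into flood water at about 0.0313 to 0.500 kg/ha. Visual 0-9 rating versus control after three to four weeks in greenhouse.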
# MOOVA (Monochoria) = assay: as above; format: in vivo, Monochoria vaginalis; details: rated 3-4 weeks after treatment
# Summary of the method: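 Visual injury scored 0-9 against control three to four weeks post-treatment, greenhouse-grown. Application: acetone/water (50/50) solutions dosed directly into flood water (1.5-3 cm over silt loam, planted top 0.5 cm), roughly 0.0313 to 0.500 kg/ha active ingredient.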
# [2] = tested on: IPOHE (Morningglory, Ivyleaf); assay: Postemergence herbicidal evaluation; format: in vivo, Ipomoea hederacea; details: postemergence
# Summary of the method: (§2)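 Young plants, roughly two weeks from seeding, receive the active ingredient as a sprayed dispersion (acetone/water 50/50, 0.5% TWEEN 20) at 40 psi. Doses span about 0.0156 to 0.500 kg/ha. A visual score from 0 to 9 compares treated with control plants four to five weeks on.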
# ECHCG (Barnyardgrass) = assay: Preemergence herbicidal evaluation; format: in vivo, Echinochloa crus-galli; details: rated 4-5 weeks after treatment
# Summary of the method: (§3)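 In this greenhouse assay, monocot and dicot seeds are planted in soil and treated prior to emergence with an aqueous acetone spray (about 0.0156-0.500 kg/ha). Plants are assessed visually against control on a 0-9 scale after 4-5 weeks.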
# [3] = tested on: IPOHE (Morningglory, Ivyleaf); assay: Preemergence herbicidal evaluation; format: in vivo, Ipomoea hederacea; details: rated 4-5 weeks after treatment
# Summary of the method: as §3
# SETVI (Foxtail, Green) [4] = assay: Preemergence herbicidal evaluation; format: in vivo, Setaria viridis; details: rated 4-5 weeks after treatment
# Summary of the method: as §3
# ABUTH (Velvetleaf) = assay: Preemergence herbicidal evaluation; format: in vivo, Abutilon theophrasti; details: rated 4-5 weeks after treatment
# Summary of the method: as §3
# CYPIR (Rice Flatsedge) = assay: Preemergence weed control under flooded paddy conditions; format: in vivo, Cyperus iria; details: rated 3-4 weeks after treatment
# Summary of the method: as §1
# ZEAMX (Corn, Field) = assay: Preemergence herbicidal evaluation; format: in vivo, Zea mays; details: rated 4-5 weeks after treatment
# Summary of the method: as §3
# GALAP (Galium) = assay: Postemergence herbicidal evaluation; format: in vivo, Galium aparine; details: postemergence
# Summary of the method: as §2
# SETVI (Foxtail, Green) [5] = assay: Postemergence herbicidal evaluation; format: in vivo, Setaria viridis; details: postemergence
# Summary of the method: as §2
# [6] = tested on: TRZAWR (Wheat, Winter, cv Riband); assay: Postemergence herbicidal evaluation; format: in vivo, Triticum aestivum; details: postemergence
# Summary of the method: as §2
smiles,measurement,setting,value
"Cn1c(C(F)(F)F)cc(=O)n(-c2cc(N=C3SCC(=O)N3CC(=O)OCC3CCCCC3)c(Cl)cc2F)c1=O [Compound 123, Cyclohexylmethyl 2-{{2-chloro-5-[3,6-dihydro-3-methyl-2,6-dioxo-4-(trifluoromethyl)-1(2H)-pyrimidinyl]-4-fluorophenyl}imino}-4-oxo-3-thiazolidineacetate]","herbicidal effect rating, ECHORC",[1]; 0.0313 kg/ha,7.0
same,"herbicidal effect rating, ECHORC",[1]; 0.0625 kg/ha,9.0
same,"herbicidal effect rating, ECHORC",[1]; 0.1250 kg/ha,9.0
same,"herbicidal effect rating, ECHORC",[1]; 0.2500 kg/ha,9.0
same,"herbicidal effect rating, MOOVA",MOOVA (Monochoria); 0.0313 kg/ha,6.0
same,"herbicidal effect rating, MOOVA",MOOVA (Monochoria); 0.0625 kg/ha,7.0
same,"herbicidal effect rating, MOOVA",MOOVA (Monochoria); 0.1250 kg/ha,9.0
same,"herbicidal effect rating, MOOVA",MOOVA (Monochoria); 0.2500 kg/ha,9.0
same,Herbicidal rating IPOHE,[2]; rate 0.0156 kg/ha,9.0
same,Herbicidal rating IPOHE,[2]; rate 0.0313 kg/ha,9.0
same,Herbicidal rating IPOHE,[2]; rate 0.0625 kg/ha,9.0
same,Herbicidal rating IPOHE,[2]; rate 0.1250 kg/ha,9.0
same,Preemergence herbicidal rating ECHCG,ECHCG (Barnyardgrass); rate 0.0156 kg/ha,0.0
same,Preemergence herbicidal rating ECHCG,ECHCG (Barnyardgrass); rate 0.0313 kg/ha,0.0
same,Preemergence herbicidal rating ECHCG,ECHCG (Barnyardgrass); rate 0.0625 kg/ha,0.0
same,Preemergence herbicidal rating ECHCG,ECHCG (Barnyardgrass); rate 0.1250 kg/ha,1.0
same,Preemergence herbicidal rating ECHCG,ECHCG (Barnyardgrass); rate 0.2500 kg/ha,4.0
same,Preemergence herbicidal rating ECHCG,ECHCG (Barnyardgrass); rate 0.5000 kg/ha,7.0
same,Preemergence herbicidal rating IPOHE,[3]; rate 0.0156 kg/ha,0.0
same,Preemergence herbicidal rating IPOHE,[3]; rate 0.0313 kg/ha,0.0
same,Preemergence herbicidal rating IPOHE,[3]; rate 0.0625 kg/ha,0.0
same,Preemergence herbicidal rating IPOHE,[3]; rate 0.1250 kg/ha,7.0
same,Preemergence herbicidal rating IPOHE,[3]; rate 0.2500 kg/ha,9.0
same,Preemergence herbicidal rating IPOHE,[3]; rate 0.5000 kg/ha,9.0
same,Preemergence herbicidal rating SETVI,"SETVI (Foxtail, Green) [4]; rate 0.0156 kg/ha",7.0
same,Preemergence herbicidal rating SETVI,"SETVI (Foxtail, Green) [4]; rate 0.0313 kg/ha",7.0
same,Preemergence herbicidal rating SETVI,"SETVI (Foxtail, Green) [4]; rate 0.0625 kg/ha",7.0
same,Preemergence herbicidal rating SETVI,"SETVI (Foxtail, Green) [4]; rate 0.1250 kg/ha",9.0
same,Preemergence herbicidal rating SETVI,"SETVI (Foxtail, Green) [4]; rate 0.2500 kg/ha",9.0
same,Preemergence herbicidal rating SETVI,"SETVI (Foxtail, Green) [4]; rate 0.5000 kg/ha",9.0
same,Preemergence herbicidal rating ABUTH,ABUTH (Velvetleaf); rate 0.0156 kg/ha,9.0
same,Preemergence herbicidal rating ABUTH,ABUTH (Velvetleaf); rate 0.0313 kg/ha,9.0
same,Preemergence herbicidal rating ABUTH,ABUTH (Velvetleaf); rate 0.0625 kg/ha,9.0
same,Preemergence herbicidal rating ABUTH,ABUTH (Velvetleaf); rate 0.1250 kg/ha,9.0
same,Preemergence herbicidal rating ABUTH,ABUTH (Velvetleaf); rate 0.2500 kg/ha,9.0
same,Preemergence herbicidal rating ABUTH,ABUTH (Velvetleaf); rate 0.5000 kg/ha,9.0
same,"herbicidal effect rating, CYPIR",CYPIR (Rice Flatsedge); 0.0313 kg/ha,6.0
same,"herbicidal effect rating, CYPIR",CYPIR (Rice Flatsedge); 0.0625 kg/ha,5.0
same,"herbicidal effect rating, CYPIR",CYPIR (Rice Flatsedge); 0.1250 kg/ha,9.0
same,"herbicidal effect rating, CYPIR",CYPIR (Rice Flatsedge); 0.2500 kg/ha,9.0
same,Preemergence herbicidal rating ZEAMX,"ZEAMX (Corn, Field); rate 0.0156 kg/ha",0.0
same,Preemergence herbicidal rating ZEAMX,"ZEAMX (Corn, Field); rate 0.0313 kg/ha",1.0
same,Preemergence herbicidal rating ZEAMX,"ZEAMX (Corn, Field); rate 0.0625 kg/ha",1.0
same,Preemergence herbicidal rating ZEAMX,"ZEAMX (Corn, Field); rate 0.1250 kg/ha",5.0
same,Preemergence herbicidal rating ZEAMX,"ZEAMX (Corn, Field); rate 0.2500 kg/ha",7.0
same,Preemergence herbicidal rating ZEAMX,"ZEAMX (Corn, Field); rate 0.5000 kg/ha",7.0
same,Herbicidal rating GALAP,GALAP (Galium); rate 0.0156 kg/ha,2.0
same,Herbicidal rating GALAP,GALAP (Galium); rate 0.0313 kg/ha,4.0
same,Herbicidal rating GALAP,GALAP (Galium); rate 0.0625 kg/ha,6.0
same,Herbicidal rating GALAP,GALAP (Galium); rate 0.1250 kg/ha,7.0
same,Herbicidal rating SETVI,"SETVI (Foxtail, Green) [5]; rate 0.0156 kg/ha",9.0
same,Herbicidal rating SETVI,"SETVI (Foxtail, Green) [5]; rate 0.0313 kg/ha",9.0
same,Herbicidal rating SETVI,"SETVI (Foxtail, Green) [5]; rate 0.0625 kg/ha",9.0
same,Herbicidal rating SETVI,"SETVI (Foxtail, Green) [5]; rate 0.1250 kg/ha",9.0
same,Herbicidal rating TRZAWR,[6]; rate 0.0156 kg/ha,4.0
same,Herbicidal rating TRZAWR,[6]; rate 0.0313 kg/ha,4.5
same,Herbicidal rating TRZAWR,[6]; rate 0.0625 kg/ha,6.0
same,Herbicidal rating TRZAWR,[6]; rate 0.1250 kg/ha,6.5
